Among the data in PubChem BioAssay (NCI) are TGI values, retold here.

Each structure is given as a SMILES string.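 Method: 48-hour compound exposure of cells in 96-well plates, five concentrations, linear interpolation of endpoints. TGI denotes the concentration required for complete inhibition of growth.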 Bounds are passed on as bounds.

Some test systems named below: NCI/ADR-RES ovarian; M19-MEL melanoma; HS 578T breast; XF 498 CNS; LXFL 529 NSCLC; KM20L2 colon; BT-549 breast; SNB-78 CNS; MDA-MB-435; HOP-18 NSCLC; RXF-631 renal; DMS 273 small cell lung; MCF7 breast.
Common to all, as to experiment: NCI tumour cell line growth inhibition, 48 h

Regarding `CS(=O)(=O)Nc1ccc(Nc2c3ccccc3nc3ccccc23)cc1`, the TGI in the assay on NCI/ADR-RES ovarian is 41.8 µM; in the assay with M19-MEL melanoma it was 15 µM; in the assay with HS 578T breast, 49.3 µM; in the assay on XF 498 CNS it was 14.9 µM; in the assay with LXFL 529 NSCLC, 18.7 µM; with KM20L2 colon it was 18.8 µM. The TGI with BT-549 breast worked out at 39.4 µM; in the assay on SNB-78 CNS it was 28.7 µM; in the assay with MDA-MB-435, 33.7 µM; with HOP-18 NSCLC, 15 µM; in the assay with RXF-631 renal, 16.9 µM; in the assay with DMS 273 small cell lung it was 14.3 µM. In addition, the TGI in the assay with MCF7 breast is 13 µM.
In the case of `O=C1C(=O)C(Br)(Br)C(Br)=C1Br`, the TGI is 34.4 µM in the assay on M19-MEL melanoma; 29 µM with LXFL 529 NSCLC; 30.7 µM with KM20L2 colon; 29.8 µM in the assay on HOP-18 NSCLC; more than 100 µM in the assay on RXF-631 renal; 48.1 µM in the assay with DMS 273 small cell lung.
For the compound `CC1=C(C(=O)Nc2ccc(Cl)c(Cl)c2)C(c2ccco2)C(C(=O)Nc2ccc(Cl)c(Cl)c2)=C(C)N1`, the TGI is 24.9 µM in the assay with M19-MEL melanoma; 7.94 µM with XF 498 CNS; 24.2 µM with LXFL 529 NSCLC; 41.4 µM in the assay with SNB-78 CNS; 26.7 µM with HOP-18 NSCLC; 46 µM with RXF-631 renal. Further, the TGI in the assay with DMS 273 small cell lung was found to be 32.7 µM.
Consider `CC1C=CC(=O)C(n2cc(F)c(=O)[nH]c2=O)O1` (stereo not drawn), for which the TGI was determined as 36.3 µM with M19-MEL melanoma; 28.7 µM with XF 498 CNS; 37.5 µM in the assay with KM20L2 colon; 83.8 µM in the assay on SNB-78 CNS; 22.6 µM in the assay with HOP-18 NSCLC; 48 µM in the assay on RXF-631 renal. In the assay on DMS 273 small cell lung, this compound registered a TGI of 47.4 µM.
With `CC1OC(OCC2COC(O)(Oc3c(-c4ccc(O)c(O)c4)oc4cc(O)cc(O)c4c3=O)C(O)C2O)C(O)C(O)C1O` (stereo not drawn), the TGI in the assay with M19-MEL melanoma, with XF 498 CNS, with LXFL 529 NSCLC, in the assay with KM20L2 colon, with SNB-78 CNS and with HOP-18 NSCLC was more than 100 µM in each case. Also, the TGI in the assay with RXF-631 renal and in the assay on DMS 273 small cell lung was more than 100 µM throughout.
On to `CC12CCC[C@@](C)(C(=O)OC3OC(CO)C(O)C(O)C3O)[C@H]1CCC13CC4CC(OC4(CO)[C@H]1O)[C@@H]23` (stereo partly drawn), for which the TGI in the assay on M19-MEL melanoma, in the assay with XF 498 CNS, with LXFL 529 NSCLC, in the assay with KM20L2 colon, in the assay on SNB-78 CNS and in the assay with HOP-18 NSCLC was more than 100 µM in each case. Moreover, the TGI with RXF-631 renal and with DMS 273 small cell lung was more than 100 µM each time.
With `COc1ccc(/C=C2\CCC(C)(CN(C)C)C2=O)cc1` (stereo not drawn), the TGI in the assay on M19-MEL melanoma, with XF 498 CNS, in the assay with LXFL 529 NSCLC, in the assay on KM20L2 colon, in the assay with SNB-78 CNS and in the assay with HOP-18 NSCLC was more than 100 µM in each case. In addition, the TGI in the assay with RXF-631 renal and with DMS 273 small cell lung was more than 100 µM throughout.
As for `O=C(COc1ccccc1)NS(=O)(=O)c1ccccc1`, the TGI in the assay on M19-MEL melanoma, in the assay on LXFL 529 NSCLC, in the assay on KM20L2 colon, in the assay on SNB-78 CNS, with HOP-18 NSCLC and with RXF-631 renal was more than 100 µM in each case.
Take `CCOC(=O)c1cn(Cc2ccccc2)c(=O)n1Cc1ccccc1`: the TGI in the assay with M19-MEL melanoma, with XF 498 CNS, in the assay with LXFL 529 NSCLC, in the assay with KM20L2 colon, in the assay with SNB-78 CNS and in the assay with HOP-18 NSCLC was more than 100 µM in each case. The TGI in the assay with RXF-631 renal and in the assay with DMS 273 small cell lung was more than 100 µM in each case.
In the case of `CCOC(=O)/C(=C/c1ccc(C#N)cc1)N(CC)CC`, the TGI in the assay on M19-MEL melanoma, in the assay on XF 498 CNS, in the assay on LXFL 529 NSCLC, in the assay on SNB-78 CNS, in the assay with HOP-18 NSCLC and with RXF-631 renal was more than 100 µM each time.
Take `COC(=O)[C@]1(C)CCC[C@@]2(C)C1CCC1=CC3(C(C)C)CCC12OO3` (stereo partly drawn): the TGI in the assay on M19-MEL melanoma, in the assay on LXFL 529 NSCLC, in the assay on KM20L2 colon, in the assay with SNB-78 CNS and in the assay on RXF-631 renal was more than 100 µM in each case.
`CC(C)=CC(=O)Cc1nc2cc(C)c(C)cc2[nH]c1=O`: the TGI in the assay on M19-MEL melanoma, with LXFL 529 NSCLC, with KM20L2 colon, in the assay on SNB-78 CNS, in the assay on HOP-18 NSCLC and in the assay with RXF-631 renal was more than 100 µM each time. The compound further returned a TGI in the assay with DMS 273 small cell lung of more than 100 µM.
For `Cc1ccccc1CN1CC=c2ccccc2=N1`, the TGI in the assay on M19-MEL melanoma, with XF 498 CNS, in the assay with KM20L2 colon, in the assay with SNB-78 CNS, in the assay with HOP-18 NSCLC and in the assay with RXF-631 renal was more than 100 µM each time. Further, the TGI in the assay with DMS 273 small cell lung is more than 100 µM.
For `O=C(Nc1nc2ncn(CC(COc3ccccc3)OC(=O)c3ccccc3)c2c(=O)[nH]1)c1ccccc1` (stereo not drawn), the TGI in the assay with M19-MEL melanoma, with XF 498 CNS, in the assay with KM20L2 colon, in the assay on RXF-631 renal and in the assay on DMS 273 small cell lung was more than 100 µM each time.
Take `Cc1ccc(C)c(NC(=O)CC/C(=N\NC(=O)C(N)=O)C(C)C(=O)c2ccc(O)cc2)c1` (stereo not drawn): the TGI in the assay on M19-MEL melanoma, in the assay with LXFL 529 NSCLC, with KM20L2 colon, in the assay on SNB-78 CNS, in the assay on HOP-18 NSCLC and with RXF-631 renal was more than 100 µM in each case.
Take `OCC12C3C4C1C1C2C3C41CO` (stereo not drawn): the TGI with M19-MEL melanoma, in the assay on XF 498 CNS, with LXFL 529 NSCLC, with KM20L2 colon, with SNB-78 CNS and in the assay with HOP-18 NSCLC was more than 100 µM throughout. The compound also displayed a TGI with RXF-631 renal of more than 100 µM.
Take `N#Cc1cc([N+](=O)[O-])ccc1NC(=O)C(=O)C(C(=O)/C=C/c1ccccc1)C1OC(=O)c2ccccc21` (stereo not drawn): the TGI with M19-MEL melanoma, with XF 498 CNS, in the assay on LXFL 529 NSCLC, in the assay on KM20L2 colon, in the assay with SNB-78 CNS and in the assay with HOP-18 NSCLC was more than 100 µM each time. In the assay on RXF-631 renal, this compound yielded a TGI of more than 100 µM.
For the compound `COc1ccc(C(c2c(O)c3ccccc3n(C)c2=O)c2c(O)c3ccccc3n(C)c2=O)cc1`, the TGI in the assay on M19-MEL melanoma was more than 100 µM; in the assay with XF 498 CNS it was more than 100 µM; in the assay on LXFL 529 NSCLC, more than 100 µM; with KM20L2 colon it was 45.7 µM; with SNB-78 CNS, 67.5 µM; in the assay on HOP-18 NSCLC, more than 100 µM. The TGI in the assay with RXF-631 renal and with DMS 273 small cell lung was more than 100 µM each time.
In the case of `Nc1c(-c2ccc(Cl)cc2Cl)[n+]([O-])c2ccccc2[n+]1[O-]`, the TGI in the assay on M19-MEL melanoma, in the assay on XF 498 CNS, with LXFL 529 NSCLC, in the assay on KM20L2 colon, with SNB-78 CNS and in the assay with HOP-18 NSCLC was more than 100 µM in each case. Moreover, the TGI in the assay with RXF-631 renal and in the assay with DMS 273 small cell lung was more than 100 µM in each case.
As for `CC(C)(C)C(=O)C1CC(=O)c2ccccc2C1=O` (stereo not drawn), the TGI was more than 100 µM in the assay with M19-MEL melanoma; more than 100 µM in the assay on XF 498 CNS; more than 100 µM with KM20L2 colon; 90.7 µM in the assay on SNB-78 CNS; more than 100 µM with HOP-18 NSCLC; more than 100 µM in the assay with RXF-631 renal.
In the case of `c1ccc(CN(Cn2cccn2)Cn2cccn2)nc1`, the TGI in the assay with M19-MEL melanoma, in the assay with XF 498 CNS, with LXFL 529 NSCLC, in the assay with KM20L2 colon, in the assay on SNB-78 CNS and in the assay with RXF-631 renal was more than 100 µM in each case. In the assay with DMS 273 small cell lung, this compound yielded a TGI of more than 100 µM.
Regarding `Cc1ccc(Cl)c(NC(=O)C(=O)C(C(=O)c2ccncc2)C2OC(=O)c3ccccc32)c1` (stereo not drawn), the TGI in the assay on M19-MEL melanoma, in the assay with XF 498 CNS, with LXFL 529 NSCLC, in the assay with SNB-78 CNS, with HOP-18 NSCLC and with RXF-631 renal was more than 100 µM in each case.
`Cc1cc(Cl)ccc1N=C1NC(=O)C(CC(=O)Nc2ccc(Cl)cc2Cl)S1` (stereo not drawn): the TGI in the assay on M19-MEL melanoma, in the assay with XF 498 CNS, in the assay with LXFL 529 NSCLC, with KM20L2 colon, in the assay on SNB-78 CNS and in the assay with RXF-631 renal was more than 100 µM in each case. The TGI in the assay with DMS 273 small cell lung is more than 100 µM.
For the compound `N#CCCN(c1ccc(-c2nnc(NC(=O)CNNC(=O)CC(=O)Nc3ccccc3)s2)cc1)S(=O)(=O)c1ccccc1`, the TGI with M19-MEL melanoma, with XF 498 CNS, in the assay on LXFL 529 NSCLC, with HOP-18 NSCLC, with RXF-631 renal and in the assay with DMS 273 small cell lung was more than 100 µM each time.
With `COC(=O)C1=C(CO)C2C=CC1C2` (stereo not drawn), the TGI in the assay with M19-MEL melanoma, in the assay with XF 498 CNS, with LXFL 529 NSCLC, with KM20L2 colon, in the assay with SNB-78 CNS and in the assay with HOP-18 NSCLC was more than 100 µM in each case. The TGI with RXF-631 renal and with DMS 273 small cell lung was more than 100 µM in each case.
For `O=C(Nc1c(O)[nH]c(=S)[nH]c1=O)c1ccc2ccccc2n1`, the TGI with M19-MEL melanoma, with LXFL 529 NSCLC, with KM20L2 colon, in the assay with SNB-78 CNS, in the assay on HOP-18 NSCLC and in the assay on RXF-631 renal was more than 100 µM throughout.
